Measurements taken from patent US20220213030A1, “AMINOGUANIDINE HYDRAZONES AS RETROMER STABILIZERS USEFUL FOR TREATING NEUROLOGICAL DISEASES” (OSPEDALE SAN RAFFAELE SRL, priority 2019, published 2022).

What was measured:
Type in all cases: in vivo, mouse
Settings in all cases: 10 mg/kg, day 100
Golgi apparatus (GM130) = test: GM130 Golgi labelling in MNs of G93A mice
From the text: (§1) Ubiquitinated inclusions accumulate in MNs of sALS and fALS patients and in lumbar SCs of ALS mice (Kabashi 2001). High levels of ubiquitinated proteins may represent an overwhelmed response of MNs to protein misfolding and aggregation, as well as a reduction of lysosome functionality. We characterized poly-ubiquitinated proteins in lumbar SCs protein extracts by 10% denaturating PAGE. We included in our experiments protein extracts from Neuro2a cells treated with the proteasome inhibitor Bortezomib (BTZ), able to increase poly-ubiquitination, as an experimental control (FIG. 13A). […] We next scored ubiquitin MFI levels in ventral horn MNs of G93A mice. […] As previously observed in Neuro2a cells, the overexpression of G93A plasmids affects the Golgi apparatus, therefore we asked whether similar alterations can occur in G93A mice by labeling lumbar sections for the cis-Golgi matrix protein GM130.
Sections from mice (frozen cryo sections) or glass covers containing cells were washed three times in PBS 1× (Lonza, 5 min each), and incubated in the following blocking mix: PBS 1×/FBS 10% (Invitrogen), BSA 1 mg/mL (Sigma), TritonX100 0.1% (Sigma), for 1 h at room temperature. Antibodies were diluted in blocking mix and incubated at +4° C. overnight according manufacturer's instructions. […]

VPS26b = VPS26b western blot in spinal cord extracts of G93A mice
Procedure: Lumbar spinal cords were dissected from saline perfused mice and rapidly homogenized in the following lysis buffer: Tris-HCl 10 mM pH 8, EDTA pH 8 1 mM, NaCl 100 mM, NP40 1% and protease inhibitor cocktail (Sigma). Protein extracts were obtained using a tight-fitting glass Potter tissue grinder (1 ml; Wheaton) and then sonicated at a frequency of 20 kHz (10 times-1s). Protein lysates from cells cultures were obtained from plates receiving PBS1× washing and subsequently the lysis buffer followed by sonication. Protein concentrations were measured by BCA protein assay kit (Thermofisher) according to the manufacturer's recommendations. Ten μg of protein extract was loaded on 10% Mini-PROTEAN TGX Stain-Free precast gels for PAGE (Bio-Rad). Gel electrophoresis was performed at 100 V for 2 hours. Gels were transferred on Immobilon®-P PVDF membrane according to the manufacturer's instructions (Millipore). Blots were blocked in 5% BSA in Tris buffered saline plus 0.1% Tween-20 (TBS-T) for 1 hour before receiving primary antibodies: goat α-VPS35 1:800 (ab10099, Abcam); rabbit α-VPS26b 1:1000 (15915-1-AP, ProteinTech); rabbit α-VPS29 1:1000 (ab236796 Abcam); mouse α-βActin 1:25000 (Sigma); mouse α-Golgin97 1:1000 (Invitrogen); mouse α-Ubiquitin 1:500 (Merk) overnight at 4° C. on shaker. […] Quantifications were done using the Image Lab 6.0.1 software (Bio-Rad).

[1] = tested on: poly-ubiquitinated proteins; test: Poly-ubiquitinated proteins in lumbar spinal cord of G93A mice
From the text: as §1
Lumbar spinal cords were dissected from saline perfused mice and rapidly homogenized in the following lysis buffer: Tris-HCl 10 mM pH 8, EDTA pH 8 1 mM, NaCl 100 mM, NP40 1% and protease inhibitor cocktail (Sigma). […] Protein concentrations were measured by BCA protein assay kit (Thermofisher) according to the manufacturer's recommendations. […] Quantifications were done using the Image Lab 6.0.1 software (Bio-Rad). […]

Cathepsin D (CTSD) = test: Cathepsin D expression and maturation in G93A mice
From the text: We next investigated Cathepsin D (CTSD) expression and distribution in G93A mice, since it is known that the trafficking of this lysosomal enzyme involves the retromer complex (Seaman 2004). In humans, maturation of CTSD starts with a pre-pro-CTSD that is converted to pro-CTSD (52 kDa) in the endoplasmic reticulum. Recycling of pro-CTSD, and its downstream migration to acidic compartments involves CI-MPR and the retromer pathway. In late endosomes, pro-CTSD is further processed to an intermediate form (48 kDa), and finally converted to mature CTSD (34 kDa) in lysosomes (Laurent-Matha 2006). The inactivation of VPS35 or the knockdown of VPS26 affect the maturation of CTSD. We scored CTSD levels in equal amounts of lumbar SC extracts obtained from vehicle-treated WT, G93A mice receiving the vehicle, and G93A treated with lead 2a. […] We next analyzed CTSD levels in MNs by confocal microscopy. We observed a significant reduction of this protease in MNs of vehicle-treated G93A, while such levels increased in G93A mice treated with compound 2a (FIG. 11F). Similarly, numbers of CTSD^+ puncta in lumbar NeuN^+ MNs were reduced in vehicle-treated G93A MNs, while they increased in compound 2a-treated mice (FIG. 11F).
Fluorescence intensity levels of VPS35, VPS26, Sortilin, CTSD and Ubiquitin were calculated using NHI-Image J software (US National Institutes of Health) according to the following protocol: stacks of confocal images were used to generate the maximal projections (Las-X) and then post-processed by NHI-Image J to crop single NeuN^+ MNs from the ventral horn of the spinal cord. We next performed background (calculated on adjacent slices only receiving secondary antibodies) subtraction for each channel, before applying the NHI-Image J mean filter (with radius 2.0 pixels) to calculate mean NeuN fluorescence levels in individual MN. Using this approach, we established a region of interest (ROI) that gated single MN. On this selected ROI, we calculated mean fluoresce levels (MFI) of each protein.

## N=C(N)NN=Cc1cccc(C=NNC(=N)N)c1 [Compound 2a, 1,3-Bis-amino guanidine phenyl hydrazone]
Golgi apparatus (GM130)
  reduction of GM130-covered areas in MNs: substantially reverted
VPS26b
  VPS26b levels in SC extracts (WB): increase VPS35 and VPS26b levels
[1]
  MFI levels of ubiquitin fluorescence in ventral horn MNs: vehicle-treated G93A MNs were higher than levels scored in compound 2a-treated G93A mice
  poly-ubiquitination (WB densitometry): substantially reduced
Cathepsin D (CTSD)
  CTSD levels in MNs (confocal MFI): increased
  levels of mature CTSD (WB, lumbar SC extracts): significantly increased
  numbers of CTSD+ puncta in lumbar NeuN+ MNs: increased
